Assay [1] has as its system cartilage pieces of bovine metacarpophalangeal joint. The experiment in a line: Suppressive action to cartilage destruction: release of sGAG induced by IL-1α from cartilage pieces. In kind it is cell-based. Conditions: 25 μmol/L test substance, 2 h pretreatment, human recombinant IL-1α 3 ng/mL, 4 days at 37° C.; for inhibition at 25 µM: Bos taurus, 96 h, read-out: sGAG Releasing Suppressive Rate (%). The procedure:
Evaluation of Suppressive Action to Cartilage Destruction [Release of sGAG Induced by Interleukin-1α (IL-1α)]
(1) Incubation of Cartilage Pieces
Each four cartilage pieces of bovine metacarpophalangeal joint were placed in each well of a 48-well plate and pretreated for 2 hours with a basal medium [D-MEM (Dulbecco's Modified Eagle Medium) containing 2 mmol/L of glutamine, 25 mmol/L of Hepes, 100 μg/mL of streptomycin, 100 IU/mL of penicillin and 5.6 μg/mL of amphotericin B] containing 25 μmol/L of a test substance. Human recombinant IL-1α (3 ng/mL) was added thereto followed by incubating at 37° C. for 4 days in a CO2 incubator set at 5 vol % of CO2. Culture supernatant and cartilage pieces were recovered and stored by freezing until the measurement for each of them.
(2) Measurement of the Amount of sGAG and Calculation of the Suppressive Rate for the Release of sGAG
The recovered cartilage pieces were treated with a papain solution [containing 1 mg/mL of papain, 100 mmol/L of sodium phosphate (pH 6.5), 5 mmol/L of L-cysteine and 5 mmol/L of disodium ethylenediaminetetraacetate (EDTA)] at 65° C. for about 16 hours to solubilize. Amount of sGAG in the resulting extract was measured using an sGAG Alcian Blue Binding Kit (Wieslab AB) which is a quantitative kit to which a Alcian blue staining protocol is applied. sGAG in the culture supernatant after the incubation was measured without subjecting to a papain treatment. Each releasing rate of sGAG was determined by the following formula to calculate the suppressive rate for the release of sGAG. Releasing rate (%) of sGAG={(Total sGAG amount in the culture supernatant)/[(Total sGAG amount in the culture supernatant)+(Total sGAG amount in the cartilage pieces)]}×100 Suppressive rate (%) for release of sGAG={[Releasing rate of sGAG (IL-1α stimulation)−Releasing rate of sGAG (Test substance)]/[Releasing rate of sGAG (IL-1α stimulation)−Releasing rate of sGAG (Non-stimulation)]}×100

Assay [2] has as its system HFLS-OA cells. The assay is described as follows: Suppressive action to TNF-α-induced proliferation of synovial cells (HFLS-OA), BrdU ELISA. In kind it is cell-based. The following applies: 200 μmol/L test substance, human recombinant TNF-α 10 ng/mL, 5 days, BrdU incorporation increase by TNF-α = 100%; for activity at 200 µM: Synovial cell, 120 h, read-out: Synovial Cell Proliferation Rate (%). The procedure:
Evaluation of Suppressive Action to Cell Proliferation of Synovial Cells (HFLS-OA) Derived from Tissues of Human Osteoarthritis
(1) Incubation of HFLS-OA Cells
HFLS-OA cells were sown onto a 96-well plate so as to make them 10^4 cells/well/100 μL in a D-MEM containing 2 vol % of fetal bovine serum (FBS) and incubated for 24 hours. A test substance (200 μmol/L) and human recombinant TNF-α (10 ng/mL) were added thereto followed by incubating for 5 days.
(2) Measurement of Action to HFLS-OA Cell Proliferation
A kit [Cell Proliferation ELISA, BrdU (colorimetric) (Roche Diagnostics)] was used and measurement was conducted according to the protocol attached to the kit. HFLS-OA cells were incubated for 3 days and 10 μL of 5-bromo-2′-deoxyuridine (BrdU) dissolved in a phosphate buffered saline (PBS) (100 μmol/L, pH 7.4) was added to each well followed by incubating for 48 hours more. After the culture supernatant was removed from each well, 200 μL/well of an immobilization/denaturation solution was added thereto and the mixture was allowed to stand for 30 minutes whereby immobilization of the cells and denaturation of DNA were conducted. After the immobilization/denaturation solution was completely removed, 100 μL of a peroxidase-labeled anti-BrdU antibody solution was added thereto and the mixture was made to react at room temperature for 90 minutes. After washing with PBS, 100 μL of a substrate liquid (tetramethylbenzidine) was added to each well and the absorbance was measured. A cell proliferation rate upon addition of each test substance was calculated where an increase in incorporation of BrdU upon addition of TNF-α was defined as 100% of cell proliferation rate.
Background: Uptake of a labelled nucleoside into DNA is a usual measure of proliferation.

Counter-ions that a name gives are not always drawn.

In the case of `O=c1oc2c(OS(=O)(=O)c3ccccc3[N+](=O)[O-])cccc2cc1NS(=O)(=O)c1ccccc1[N+](=O)[O-]` [Compound 18, 3-[(2-Nitrophenyl)sulfonylamino]-2-oxochromen-8-yl 2-nitrobenzenesulfonate], the inhibition at 25 µM in assay [1] was 81%. The activity at 200 µM in assay [2] is -23.8%.

For `O=c1oc2c(OS(=O)(=O)c3ccccc3)cccc2cc1NS(=O)(=O)c1ccc(F)c(F)c1` [Compound 26, 3-[(3,4-Difluorophenyl)sulfonylamino]-2-oxochromen-8-yl benzenesulfonate], in assay [1], the inhibition at 25 µM is 97%. Also, in assay [2], the activity at 200 µM was -38.4%.

In the case of `O=c1oc2c(OS(=O)(=O)c3ccccc3)cccc2cc1NS(=O)(=O)c1ccc([N+](=O)[O-])cc1` [Compound 23, 3-[(4-Nitrophenyl)sulfonylamino]-2-oxochromen-8-yl benzenesulfonate], in assay [1], the inhibition at 25 µM amounted to 103%. Besides, in assay [2], the activity at 200 µM was -39%.

For `Nc1ccc(S(=O)(=O)Oc2cccc3cc(NS(=O)(=O)c4cccc(C(F)(F)F)c4)c(=O)oc23)cc1` [Compound 46, 2-Oxo-3-[[3-(trifluoromethyl)phenyl]sulfonylamino]-chromen-8-yl 4-aminobenzenesulfonate hydrochloride], in assay [1], the inhibition at 25 µM stood at 98%. The activity at 200 µM in assay [2] was -37%.

Regarding `O=c1oc2c(OS(=O)(=O)c3ccc(C(F)(F)F)cc3)cccc2cc1NS(=O)(=O)c1cccc(C(F)(F)F)c1` [Compound 57, 2-Oxo-3-[[3-(trifluoromethyl)phenyl]sulfonylamino]-chromen-8-yl 4-(trifluoromethyl)benzenesulfonate], the inhibition at 25 µM in assay [1] was determined as 140%. Further, in assay [2], the activity at 200 µM is -50%.

On to `O=c1oc2c(OS(=O)(=O)c3cccc([N+](=O)[O-])c3)cccc2cc1NS(=O)(=O)c1ccc(-c2ccccc2)cc1` [Compound 55, 2-Oxo-3-[(4-phenylphenyl)sulfonylamino]chromen-8-yl 3-nitrobenzenesulfonate], for which, in assay [1], the inhibition at 25 µM came to 117%. Also, the activity at 200 µM in assay [2] was -32.2%.

Turning to `O=c1oc2c(OS(=O)(=O)c3ccc(-c4ccccc4)cc3)cccc2cc1NS(=O)(=O)c1ccc(C(F)(F)F)cc1` [Compound 64, 2-Oxo-3-[[4-(trifluoromethyl)phenyl]sulfonylamino]-chromen-8-yl 4-phenylbenzenesulfonate], the inhibition at 25 µM in assay [1] came out at 136%. In addition, the activity at 200 µM in assay [2] is -45.9%.

As for `N#Cc1cccc(S(=O)(=O)Nc2cc3cccc(OS(=O)(=O)c4cccc(C#N)c4)c3oc2=O)c1` [Compound 14, 3-[(3-Cyanophenyl)sulfonylamino]-2-oxochromen-8-yl 3-cyanobenzenesulfonate], the inhibition at 25 µM in assay [1] was found to be 66%. In addition, the activity at 200 µM in assay [2] was -60.3%.

Take `O=c1oc2c(OS(=O)(=O)c3cccc(Br)c3)cccc2cc1NS(=O)(=O)c1ccc(-c2ccccc2)cc1` [Compound 53, 2-Oxo-3-[(4-phenylphenyl)sulfonylamino]chromen-8-yl 3-bromobenzenesulfonate]: in assay [1], the inhibition at 25 µM was determined as 131%. For the same molecule, the activity at 200 µM in assay [2] is -32.3%.

In the case of `O=c1oc2c(OS(=O)(=O)c3ccccc3)cccc2cc1NS(=O)(=O)c1ccc(-c2ccccc2)cc1` [Compound 30, 2-Oxo-3-[(4-phenylphenyl)sulfonylamino]chromen-8-yl benzenesulfonate], the inhibition at 25 µM in assay [1] was determined as 141%. In addition, in assay [2], the activity at 200 µM was -33%.

In the case of `O=c1oc2c(OS(=O)(=O)c3ccc([N+](=O)[O-])cc3)cccc2cc1NS(=O)(=O)c1ccc([N+](=O)[O-])cc1` [Compound 16, 3-[(4-Nitrophenyl)sulfonylamino]-2-oxochromen-8-yl 4-nitrobenzenesulfonate], in assay [1], the inhibition at 25 µM came to 112%. Moreover, the activity at 200 µM in assay [2] was -19.9%.

Turning to `O=c1oc2c(OS(=O)(=O)c3ccccc3)cccc2cc1NS(=O)(=O)c1cccc(Br)c1` [Compound 31, 3-[(3-Bromophenyl)sulfonylamino]-2-oxochromen-8-yl benzenesulfonate], the inhibition at 25 µM in assay [1] was 135%. Further, the activity at 200 µM in assay [2] is -37.1%.

`N#Cc1ccc(S(=O)(=O)Nc2cc3cccc(OS(=O)(=O)c4ccc(C#N)cc4)c3oc2=O)cc1` [Compound 13, 3-[(4-Cyanophenyl)sulfonylamino]-2-oxochromen-8-yl 4-cyanobenzenesulfonate]: in assay [1], the inhibition at 25 µM was 44%. In addition, the activity at 200 µM in assay [2] was -54.1%.

Regarding `O=C(O)c1ccc(S(=O)(=O)Oc2cccc3cc(NS(=O)(=O)c4cccc([N+](=O)[O-])c4)c(=O)oc23)cc1` [Compound 49, 4-[3-[(3-Nitrophenyl)sulfonylamino]-2-oxochromen-8-yl]oxysulfonylbenzoic acid], the inhibition at 25 µM in assay [1] is 38%. The activity at 200 µM in assay [2] is -36.1%.

For the molecule `O=c1oc2c(OS(=O)(=O)c3cccc(C(F)(F)F)c3)cccc2cc1NS(=O)(=O)c1ccc([N+](=O)[O-])cc1` [Compound 42, 3-[(4-Nitrophenyl)sulfonylamino]-2-oxochromen-8-yl 3-(trifluoromethyl)benzenesulfonate], the inhibition at 25 µM in assay [1] was 163%. In assay [2], the activity at 200 µM was -35.5%.

As for `O=c1oc2c(OS(=O)(=O)c3cccc(C(F)(F)F)c3)cccc2cc1NS(=O)(=O)c1ccc(-c2ccccc2)cc1` [Compound 52, 2-Oxo-3-[(4-phenylphenyl)sulfonylamino]chromen-8-yl 3-(trifluoromethyl)benzenesulfonate], in assay [1], the inhibition at 25 µM is 126%. In addition, the activity at 200 µM in assay [2] was -35.5%.

Take `N#Cc1ccc(S(=O)(=O)Nc2cc3cccc(OS(=O)(=O)c4ccccc4)c3oc2=O)cc1` [Compound 21, 3-[(4-Cyanophenyl)sulfonylamino]-2-oxochromen-8-yl benzenesulfonate]: in assay [1], the inhibition at 25 µM is 69%. Further, in assay [2], the activity at 200 µM was -41.2%.

In the case of `O=c1oc2c(OS(=O)(=O)c3cccc(Br)c3)cccc2cc1NS(=O)(=O)c1ccc(C(F)(F)F)cc1` [Compound 61, 2-Oxo-3-[[4-(trifluoromethyl)phenyl]sulfonylamino]-chromen-8-yl 3-bromobenzenesulfonate], the inhibition at 25 µM in assay [1] worked out at 140%. For the same molecule, in assay [2], the activity at 200 µM was -40.6%.

As for `COc1ccc(S(=O)(=O)Nc2cc3cccc(OS(=O)(=O)c4ccc(OC)cc4)c3oc2=O)cc1` [Compound 1, 3-[(4-Methoxyphenyl)sulfonylamino]-2-oxochromen-8-yl 4-methoxybenzenesulfonate], the inhibition at 25 µM in assay [1] came out at 93%. Also, in assay [2], the activity at 200 µM was -39.1%.

As for `O=c1oc2c(OS(=O)(=O)c3cccc(C(F)(F)F)c3)cccc2cc1NS(=O)(=O)c1ccccc1` [Compound 35, 3-(Benzenesulfonamide)-2-oxochromen-8-yl 3-(trifluoromethyl)benzenesulfonate], in assay [1], the “sGAG Releasing Suppressive Rate (%)” value is given as 103%. The “Synovial Cell Proliferation Rate (%)” value in assay [2] is listed as −31.5%.

For `O=c1oc2c(OS(=O)(=O)c3cccc(C(F)(F)F)c3)cccc2cc1NS(=O)(=O)c1cccc(Br)c1` [Compound 56, 3-[(3-Bromophenyl)sulfonylamino]-2-oxochromen-8-yl 3-(trifluoromethyl)benzenesulfonate], the inhibition at 25 µM in assay [1] is 133%. The activity at 200 µM in assay [2] was -44.4%.

For the origin of these results see patent US9365533B2, “Coumarin derivative” (NIPPON ZOKI PHARMACEUTICAL CO., LTD., priority 2012, dated 2016).
